Earlier results in patent US7872044B2, “Inhibitors of chymase” (Janssen Pharmaceutica NV, priority 2006, dated 2011).

Test system: angiotensin II activity in human vascular extracts
Settings: background statement

NCCCC[C@H](N[C@@H](CCc1ccccc1)C(=O)O)C(=O)N1CCC[C@H]1C(=O)O [lisinopril]
angiotensin II activity inhibited: about 8%
